Data: the supplement of paper PMC5908809

Key:
IMC-1 (IL-2 20 ng/mL) [1] = assay: percent inhibition of viability; higher = more inhibition; conditions: 72 h
YT (IL-2 2.5 ng/mL) [2] = assay: as above; conditions: 72 h
NK-92 (IL-2 2.5 ng/mL) [3] = assay: as above; conditions: 72 h
[4] = system: normal primary NK cells, pool 3 (3 donors) (IL-2 2.5 ng/mL); assay: as above; conditions: 72 h
DERL-7 (IL-2 2.5 ng/mL) [5] = assay: as above; conditions: 72 h
NK-YS (IL-2 2.5 ng/mL) [6] = assay: as above; conditions: 72 h
[7] = system: normal primary NK cells, pool 1 (3 donors), resting (IL-2 0 ng/mL); assay: as above; conditions: 72 h
SNK-6 (IL-2 2.5 ng/mL) [8] = assay: as above; conditions: 72 h
KHYG-1 (IL-2 2.5 ng/mL) [9] = assay: as above; conditions: 72 h
[10] = system: normal primary NK cells, pool 1 (3 donors) (IL-2 2.5 ng/mL); assay: as above; conditions: 72 h
[11] = system: normal primary NK cells, pool 2 (3 donors) (IL-2 2.5 ng/mL); assay: as above; conditions: 72 h
KAI3 (IL-2 2.5 ng/mL) [12] = assay: as above; conditions: 72 h
NKL (IL-2 2.5 ng/mL) [13] = assay: as above; conditions: 72 h
[14] = system: normal NK cells expanded with K562-aAPC; assay: drug sensitivity score (DSS) (DSS units); higher = more sensitive; extreme values may be limits of the assay; conditions: 72 h; IL-2 2.5 ng/mL
Procedure: (§1)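 Drug sensitivity and resistance testing on K562-aAPC-expanded normal NK cells: 5 concentrations (10-fold steps over a 10,000-fold range), 72 h at 37 °C, viability by CellTiter-Glo normalised to DMSO and benzethonium chloride controls; DSS from the fitted curve.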

IMC-1 (IL-2 20 ng/mL) [15] = assay: as above; conditions: 72 h
YT (IL-2 2.5 ng/mL) [16] = assay: as above; conditions: 72 h
NK-92 (IL-2 2.5 ng/mL) [17] = assay: as above; conditions: 72 h
[18] = system: normal primary NK cells, pool 3 (3 donors) (IL-2 2.5 ng/mL); assay: as above; conditions: 72 h
DERL-7 (IL-2 2.5 ng/mL) [19] = assay: as above; conditions: 72 h
NK-YS (IL-2 2.5 ng/mL) [20] = assay: as above; conditions: 72 h
[21] = system: normal primary NK cells, pool 1 (3 donors), resting (IL-2 0 ng/mL); assay: as above; conditions: 72 h
SNK-6 (IL-2 2.5 ng/mL) [22] = assay: as above; conditions: 72 h
KHYG-1 (IL-2 2.5 ng/mL) [23] = assay: as above; conditions: 72 h
[24] = system: normal primary NK cells, pool 1 (3 donors) (IL-2 2.5 ng/mL); assay: as above; conditions: 72 h
[25] = system: normal primary NK cells, pool 2 (3 donors) (IL-2 2.5 ng/mL); assay: as above; conditions: 72 h
KAI3 (IL-2 2.5 ng/mL) [26] = assay: as above; conditions: 72 h
NKL (IL-2 2.5 ng/mL) [27] = assay: as above; conditions: 72 h
[28] = system: normal NK cells expanded with K562-aAPC; assay: percent inhibition of viability; higher = more inhibition; conditions: 72 h, IL-2 2.5 ng/mL
Procedure: as §1

CCn1nnc2c(N3CCOCC3)nc(-c3ccc(NC(=O)Nc4ccc(C(=O)N5CCN(C)CC5)cc4)cc3)nc21 [PKI-402] (max concentration tested 2500 nM)
percent inhibition of viability [%]
Conditions	0.25 nM	2.5 nM	25 nM	250 nM	2500 nM
DERL-7 (IL-2 2.5 ng/mL) [5]	-1.72	1.39	10.1	79.5	93.8
IMC-1 (IL-2 20 ng/mL) [1]	-5.86	-7.07	-15	-6.11	25.1
KAI3 (IL-2 2.5 ng/mL) [12]	-2.89	-4.76	8.59	55.9	67.9
KHYG-1 (IL-2 2.5 ng/mL) [9]	-6.21	-11	-2.81	30.4	84.9
NK-92 (IL-2 2.5 ng/mL) [3]	-19.1	-16.8	-1.05	13.1	63.7
NK-YS (IL-2 2.5 ng/mL) [6]	-6.47	-8.86	4.39	52	75.7
NKL (IL-2 2.5 ng/mL) [13]	-5.68	-11.2	4.32	60	68.9
SNK-6 (IL-2 2.5 ng/mL) [8]	-8.78	-15.4	-7.51	33.2	54.5
YT (IL-2 2.5 ng/mL) [2]	-3.62	-7.8	0.22	50.5	82.6
[4]	-10.9	-4.56	0.88	11	34.4
[7]	-7.29	0.44	14.9	31.1	26.7
[10]	1.41	-3.9	19.1	28.9	48.2
[11]	-8.91	-3.82	2.65	17.3	38.4
[28]	-5.93	-8.28	-5.99	11.4	51

Conditions	drug sensitivity score
DERL-7 (IL-2 2.5 ng/mL) [19]	15.9
IMC-1 (IL-2 20 ng/mL) [15]	0.69
KAI3 (IL-2 2.5 ng/mL) [26]	11.4
KHYG-1 (IL-2 2.5 ng/mL) [23]	8.93
NK-92 (IL-2 2.5 ng/mL) [17]	5.62
NK-YS (IL-2 2.5 ng/mL) [20]	10.6
NKL (IL-2 2.5 ng/mL) [27]	11.6
SNK-6 (IL-2 2.5 ng/mL) [22]	6.93
YT (IL-2 2.5 ng/mL) [16]	10.6
[14]	4.52
[18]	3.19
[21]	7.08
[24]	7.21
[25]	3.74

NC(=O)Nc1sc(-c2ccc(F)cc2)cc1C(N)=O [TPCA-1] (max concentration tested 25000 nM)
percent inhibition of viability [%]
Conditions	2.5 nM	25 nM	250 nM	2500 nM	25000 nM
DERL-7 (IL-2 2.5 ng/mL) [5]	0.71	4.69	36.8	94	100
IMC-1 (IL-2 20 ng/mL) [1]	-2.64	-8.76	-6.99	3.86	99.3
KAI3 (IL-2 2.5 ng/mL) [12]	-6.8	-3.3	53.5	89.1	91.4
KHYG-1 (IL-2 2.5 ng/mL) [9]	-2.05	-6.88	25.8	101	97.8
NK-92 (IL-2 2.5 ng/mL) [3]	-11.2	-10.8	8.78	80.4	91.7
NK-YS (IL-2 2.5 ng/mL) [6]	-6.85	-4.02	17	58	94.8
NKL (IL-2 2.5 ng/mL) [13]	-2.04	-2.79	45.8	72.9	87.4
SNK-6 (IL-2 2.5 ng/mL) [8]	-12.6	-19.3	33.2	75.8	93.2
YT (IL-2 2.5 ng/mL) [2]	-3.91	-4.44	13.1	79.6	97.9
[4]	-6.13	-4.52	15.6	67.3	91.3
[7]	-1.07	1.15	3.48	43.5	82.3
[10]	-12.8	-10.6	13.2	73.4	94.3
[11]	-8.08	-4.41	24.2	69.5	87.1
[28]	-0.68	-4.88	18.2	88.4	98.1

Conditions	drug sensitivity score
DERL-7 (IL-2 2.5 ng/mL) [19]	21.5
IMC-1 (IL-2 20 ng/mL) [15]	6.04
KAI3 (IL-2 2.5 ng/mL) [26]	23
KHYG-1 (IL-2 2.5 ng/mL) [23]	21.9
NK-92 (IL-2 2.5 ng/mL) [17]	15.9
NK-YS (IL-2 2.5 ng/mL) [20]	13.2
NKL (IL-2 2.5 ng/mL) [27]	20
SNK-6 (IL-2 2.5 ng/mL) [22]	18.2
YT (IL-2 2.5 ng/mL) [16]	16.3
[14]	18.4
[18]	14.5
[21]	9.72
[24]	15.2
[25]	15.8
